Target: Stromelysin-1 (Homo sapiens, UniProt P08254)
Assay: Inhibitory activity against Matrix metalloprotease-3

Sequence of Stromelysin-1 (P08254 whole entry): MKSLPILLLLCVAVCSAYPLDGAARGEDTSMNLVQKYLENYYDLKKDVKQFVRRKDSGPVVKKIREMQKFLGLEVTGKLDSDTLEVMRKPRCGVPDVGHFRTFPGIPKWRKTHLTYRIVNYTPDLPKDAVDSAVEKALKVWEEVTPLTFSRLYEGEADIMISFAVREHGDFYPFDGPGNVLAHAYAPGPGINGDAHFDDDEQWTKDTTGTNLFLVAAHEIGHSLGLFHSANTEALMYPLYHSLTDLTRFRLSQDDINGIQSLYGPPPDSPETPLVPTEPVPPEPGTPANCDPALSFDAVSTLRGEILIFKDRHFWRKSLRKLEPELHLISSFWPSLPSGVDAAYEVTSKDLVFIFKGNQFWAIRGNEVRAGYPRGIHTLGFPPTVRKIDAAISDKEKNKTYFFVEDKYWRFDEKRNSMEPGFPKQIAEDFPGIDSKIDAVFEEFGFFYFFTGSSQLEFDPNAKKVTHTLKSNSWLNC

Structure (SMILES)	IC50
COc1ccc(S(=O)(=O)NCC[C@H](N[C@@H](CCc2ccccc2)C(=O)N[C@@H](CC(C)C)C(=O)Nc2ccccc2)C(=O)O)cc1	0.05 µM
CNC(=O)[C@H](Cc1ccccc1)NC(=O)[C@H](CCc1ccccc1)N[C@@H](CCN1C(=O)NC2(CCCC2)C1=O)C(=O)O	1.9 µM
CNC(=O)[C@H](Cc1ccccc1)NC(=O)[C@H](CCc1ccccc1)N[C@@H](CCNS(=O)(=O)c1ccc2ccccc2c1)C(=O)O	0.51 µM
COc1ccc(S(=O)(=O)NCC[C@H](N[C@@H](CCc2ccccc2)C(=O)N2CCC(O)CC2)C(=O)O)cc1	> 20 µM
CNC(=O)c1ccc(CNC(=O)[C@H](CCc2ccccc2)N[C@@H](CCNS(=O)(=O)c2ccc(OC)cc2)C(=O)O)cc1	18 µM
COc1ccc(S(=O)(=O)NCC[C@H](N[C@@H](CCc2ccccc2)C(=O)NCc2ccc(C(=O)O)cc2)C(=O)O)cc1	14 µM
CNC(=O)[C@H](Cc1ccccc1)NC(=O)[C@H](CCc1ccccc1)N[C@@H](CCNC(=O)c1cc2ccccc2[nH]1)C(=O)O	1.1 µM
CCOC(=O)N1CCC(NC(=O)[C@H](CCc2ccccc2)N[C@@H](CCNS(=O)(=O)c2ccc(OC)cc2)C(=O)O)CC1	> 20 µM

The remaining lines, values ahead:

IC50	Structure (SMILES)
0.55 µM	COc1ccc(S(=O)(=O)NCC[C@H](N[C@@H](CCc2ccccc2)C(=O)N[C@@H](CC(C)C)C(=O)NOCc2ccccc2)C(=O)O)cc1
0.05 µM	Cc1ccc(S(=O)(=O)NCC[C@H](N[C@@H](CCc2ccccc2)C(=O)N[C@@H](CC(C)C)C(=O)Nc2ccccc2)C(=O)O)cc1
> 20 µM	CCOC(=O)N1CCN(C(=O)[C@H](CCc2ccccc2)N[C@@H](CCNS(=O)(=O)c2ccc(OC)cc2)C(=O)O)CC1
0.12 µM	CNC(=O)[C@H](Cc1ccccc1)NC(=O)[C@H](CCc1ccccc1)N[C@@H](CCNS(=O)(=O)c1ccc(C)cc1)C(=O)O
> 20 µM	COc1ccc(S(=O)(=O)NCC[C@H](N[C@@H](CCc2ccccc2)C(=O)N2CCN(S(C)(=O)=O)CC2)C(=O)O)cc1
> 20 µM	COc1ccc(S(=O)(=O)NCC[C@H](N[C@@H](CCc2ccccc2)C(=O)N2CCOCC2)C(=O)O)cc1

Reference: ChEMBL document CHEMBL1128973, “Potent matrix metalloproteinase inhibitors: Amino-carboxylate compounds containing modifications of the P1 residue” (Bioorg Med Chem Lett, 1996)
